# According to ChEMBL document CHEMBL1157539, “Thousands of chemical starting points for antimalarial lead identification” (Nature, 2010):
# System: Plasmodium falciparum
# Experiment: GSK_TCMDC: Inhibition of Plasmodium falciparum 3D7 in whole erythrocytes, using parasite LDH activity as an index of growth.
# Format: functional, organism-based
# Conditions: Plasmodium falciparum, 3D7
structure (smiles),measurement,value
O=c1cc(NCCCNCc2ccc(Cl)c(Cl)c2)[nH]c2ccc(Cl)cc12,XC50,0.344 µM
Cc1cc(Nc2ccc(C(C)(C)C)cc2)c2[nH]ncc2n1,XC50,1.16 µM
COc1ccc(C=NN=c2cc(C)[nH]c3ccc(C)cc23)c2ccccc12,XC50,0.864 µM
CS(=O)(=O)N(CC(O)Cn1c2ccc(Cl)cc2c2cc(Cl)ccc21)c1ccccc1 (centres undefined),XC50,0.897 µM
N#Cc1ccc(N(CC(=O)NCCc2ccc(F)cc2)CC2CC2)c2ccccc12,XC50,0.932 µM
Cc1cccc2nc(-c3ccc(-c4ccc(CN5CCN(C6CCN(C)CC6)CC5)cc4)cc3)[nH]c12,XC50,0.1 µM
O=C(Nc1ccc(C(F)(F)F)cc1)c1ccc(S(=O)(=O)NC2CCN(Cc3ccccc3)C2)cc1 (centres undefined),XC50,0.618 µM
O=C(/C=C/c1ccc(Cl)c(Cl)c1)NC1CCC(CN2CCC(c3nc4ccccc4s3)CC2)CC1 (centres undefined),XC50,1.02 µM
CC1CN(c2cc(=O)n(Cc3cccc(NC(=O)Nc4ccc(-c5ccccc5)cc4)c3)cn2)CC(C)N1 (centres undefined),XC50,0.396 µM
O=C(C=Cc1ccc(Cl)c(Cl)c1)NCCCCCN1CCC(CCNS(=O)(=O)c2ccc(F)cc2)CC1,XC50,1.09 µM
Cn1c(Sc2ncnc3sccc23)nc2ccccc21,XC50,0.191 µM
Cc1[nH]c(C)c(-c2ccc(-c3ccc(OCC(F)(F)F)cc3)nc2)c(=O)c1Cl,XC50,0.389 µM
CN1CCN(Cc2ccc(-c3ccc4c(Nc5ccc(Oc6ccccc6)cc5)ccnc4c3)o2)CC1,XC50,0.177 µM
COc1ccc(C#Cc2ccc(-c3c(C)[nH]c(C)c(Cl)c3=O)cc2)cc1,XC50,0.0665 µM
CC(C)NCc1ccc(-c2ccc(NC(=O)c3cccc(Cl)c3)cc2)cc1,XC50,0.962 µM
CC1CCCCN1Cc1cccc(-c2c[nH]c3nc(NC4CCCC4)ncc23)c1 (centres undefined),XC50,1.31 µM
O=C(/C=C/c1ccc(Cl)c(Cl)c1)NCCCCCN1CCCC(CNC(=O)c2sc3ccccc3c2Cl)C1 (centres undefined),XC50,0.87 µM
COc1ccc2ccccc2c1C=NNc1ccnc2cc(Cl)ccc12,XC50,0.615 µM
NC(=O)C1CCN(Cc2cccc(-c3cccc(-c4nc5cc(F)ccc5[nH]4)c3)c2)CC1,XC50,0.853 µM
Cc1cc(NCCC(=O)NCCOc2ccccc2)nc(NCCc2ccccc2)n1,XC50,1.23 µM
COc1ccc2nccc([C@@H](O)CN3CCC(NCc4nc5c(F)cccc5[nH]4)CC3)c2c1,XC50,0.467 µM
CCNc1cc(C)nc(Nc2ccc(C)cc2)n1,XC50,0.73 µM
COc1cccc(CNC(=O)NC2CCN(c3ccnc(Nc4ccc(F)cc4)n3)C2)c1 (centres undefined),XC50,0.805 µM
Cc1ccc(CN2CCCCC(NC(=O)c3cc4ccccc4s3)C2)cc1 (centres undefined),XC50,0.9 µM
CC1(C)NC(N)=NC(=N)N1OCc1cccc(Cl)c1Cl,XC50,0.0032 µM
NC1CCCN(Cc2cccc(-c3cccc(-c4nc5ccccc5[nH]4)c3)c2)C1 (centres undefined),XC50,0.637 µM
CC(C)c1ccc(Cn2cc(-c3ccncc3)c3cc(OCc4ccccc4)ccc32)cc1,XC50,0.706 µM
COc1ccc(C=CC(=O)NC(=O)c2ccccc2OC(=O)c2ccccc2)cc1OC,XC50,0.91 µM
O=C(/C=C/c1ccc(Cl)c(Cl)c1)N1CCC(NCc2ccc3[nH]ccc3c2)CC1,XC50,1.02 µM
CCCCCCCNCCNc1cc(C)nc2ccccc12,XC50,0.386 µM
Cc1ccc(C2(C)CC(C)(C)N(C(=O)COc3ccc4ccccc4c3)c3ccccc32)cc1 (centres undefined),XC50,0.113 µM
Cc1ccc2nc(-c3ccc(/C=C/C(=O)NC4CCN(Cc5ccccc5)CC4)cc3)[nH]c2c1C,XC50,0.632 µM
O=C(c1ccco1)N1CCN(c2nc(-c3ccc(Cl)cc3)nc3ccccc23)CC1,XC50,0.934 µM
O=C(/C=C/c1cc(F)cc(C(F)(F)F)c1)N1CCC(CN2CCC(c3c[nH]c4ccccc34)CC2)CC1,XC50,0.756 µM
Cc1cccc2nc(-c3ccc(-c4cccc(CN5CC(C)OC(C)C5)c4)s3)[nH]c12 (centres undefined),XC50,0.757 µM
O=C(Nc1ccc(Cl)cc1)c1ccc(CN2CCCN(CC3CCCCC3)CC2)cc1,XC50,0.22 µM
O=C(C=Cc1ccccc1O)N1CCC(CN2CCC(c3c[nH]c4ccccc34)CC2)CC1,XC50,0.961 µM
CCc1cccc(-n2c(=O)c3cccnc3n2CC(=O)NCc2ccccc2Cl)c1,XC50,0.741 µM
Fc1ccc2[nH]ccc(=NN=CC=Cc3ccccc3)c2c1,XC50,0.681 µM
Fc1ccccc1CNc1ncc(-c2ccsc2)c(-c2nccs2)n1,XC50,0.054 µM
CCCCCN1CCCCC(NS(=O)(=O)c2ccc(C(=O)Nc3cccc(C(F)(F)F)c3)cc2)C1 (centres undefined),XC50,0.75 µM
O=C(Nc1ccc2ccccc2c1)N(CCCn1ccnc1)Cc1csc(-c2ccc(CNCc3ccccc3)cc2)n1,XC50,0.739 µM
CCOc1ccc(C2CCN(CCCCNC(=O)c3ccc(NC(=O)c4ccc(Cl)cc4)cc3)CC2)c(Cl)c1,XC50,0.731 µM
Cc1ccc2[nH]c(NC#N)nc2c1,XC50,1.15 µM
CC(=O)Nc1cccc(C(=O)Nc2cccc(-c3ccc(-c4nc5cccc(C)c5[nH]4)s3)c2)c1,XC50,0.767 µM
CC(C)COc1ccc(Cl)cc1Cc1nc(-c2nc3ccc(CN4CCCCC4)cc3[nH]2)co1,XC50,0.738 µM
COc1cc2ccccc2c(OC)c1CCNCCCCNCCc1c(OC)cc2ccccc2c1OC,XC50,0.891 µM
O=C(NC1CCN(Cc2ccccc2)CC1)c1ccc(-c2nc3cc(Cl)c(F)cc3[nH]2)cc1,XC50,0.245 µM
Cc1ccc2[nH]c(C3CCCNC3)c(-c3ccncc3)c2c1 (centres undefined),XC50,1.23 µM
